One experiment addresses T1, ALDH1A1 enzyme (Homo sapiens, UniProt P00352).
T1 sequence (P00352 1-501): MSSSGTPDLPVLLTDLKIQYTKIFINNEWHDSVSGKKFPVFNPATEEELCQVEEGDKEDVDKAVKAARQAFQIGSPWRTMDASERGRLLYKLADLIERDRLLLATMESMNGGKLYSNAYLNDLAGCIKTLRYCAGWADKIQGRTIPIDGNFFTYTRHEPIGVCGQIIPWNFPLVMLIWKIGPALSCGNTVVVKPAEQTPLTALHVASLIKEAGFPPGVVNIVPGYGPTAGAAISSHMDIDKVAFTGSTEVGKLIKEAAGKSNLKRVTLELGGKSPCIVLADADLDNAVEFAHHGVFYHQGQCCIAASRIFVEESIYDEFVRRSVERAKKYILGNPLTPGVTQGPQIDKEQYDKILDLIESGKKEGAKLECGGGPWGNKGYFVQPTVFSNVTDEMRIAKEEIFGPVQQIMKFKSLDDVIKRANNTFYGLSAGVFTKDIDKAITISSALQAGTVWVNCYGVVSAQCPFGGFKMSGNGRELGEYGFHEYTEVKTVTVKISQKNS
Briefly: ALDH1A1 enzymatic assay (in vitro). The format is biochemical. As to conditions: ALDH1A1 enzyme 20 nM, NAD+ 1 mM, propionaldehyde 80 μM; read-out: ALDH1A1 IC50. Here is the method:
Example 358. ALDH1A1 Enzymatic Assay (In Vitro Assay)
3 μL of ALDH1A1 enzyme (final concentration 20 nM) or assay buffer (100 mM HEPES pH 7.5 with 0.01% Tween 20) were dispensed into a 1,536-well solid-bottom black plate (Greiner Bio One, Monroe, N.C.) followed by pin-tool transfer (23 nL) of candidate inhibitors (final concentration range 968 pM to 57.2 μM) and control (Bay 11-7085, final concentration range 1.31 nM to 2.86 μM). Samples were incubated (RT, protected from light) for 15 minutes followed by a 1 μL substrate addition of NAD^+ and Propionaldehyde (final concentrations of 1 mM and 80 μM, respectively). Plates were centrifuged at 1,000 rpm for 15 seconds, then read in kinetic mode on a ViewLux High-throughput CCD imager (Perkin-Elmer) equipped with standard UV fluorescence optics (340 nm excitation, 450 nm emission) for 10 minutes. The change in fluorescence intensity over the 10-minute reaction period was normalized against no-inhibitor and no-enzyme controls and the resulting percent inhibition data were fitted for biological activity.

For a further experiment, the system named is MIA PaCa-2 cells. Briefly: MIA PaCa2 cell-based assay (1,536-well high-content imaging ALDEFLUOR assay). More on the design: species or system human. As to conditions: ALDEFLUOR BAAA substrate 500 nM, 30 minutes. The essentials: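 MIA PaCa-2 cells (1,000/well), plated overnight, given BAAA substrate (500 nM) plus Hoechst 33342 (0.5 nM), then compound (16-point, 1.4 nM–47.8 μM final; 0.5% DMSO). After 30 min at 37° C, ALDH activity imaged by high-content microscopy as BAA-retaining (FITC) cells versus Hoechst-stained nuclei.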

Where a name gives a salt, the structure may show the parent alone.

The IC50 is the concentration at which inhibition is half-maximal. As to “4-(4-cyano-4-phenylpiperidin-1-yl)-6-fluoro-N-((1R,3R)-3-hydroxycyclobutyl)quinoline-3-carboxamide [Cpd. 330]”, the IC50 on ALDH1A1 enzyme and in the experiment on MIA PaCa-2 cells was less than 500 nM each time.

Regarding `CS(=O)(=O)N1CCN(C(=O)c2cnc3ccc(F)cc3c2N2CCN(S(C)(=O)=O)CC2)CC1` [Cpd. 307, (6-fluoro-4-(4-(methylsulfonyl)piperazin-1-yl)quinolin-3-yl)(4-(methylsulfonyl)piperazin-1-yl)methanone], the IC50 was 1000 to 10000 nM at ALDH1A1 enzyme and more than 10000 nM with MIA PaCa-2 cells (Homo sapiens, 0.5 h).

As for `CS(=O)(=O)C1CCN(C(=O)c2cnc3ccc(Cl)cc3c2N2CCC(C#N)(c3ccccc3)CC2)CC1` [Cpd. 310, 1-(6-chloro-3-(4-(methylsulfonyl)piperidine-1-carbonyl)quinolin-4-yl)-4-phenylpiperidine-4-carbonitrile], the IC50 at ALDH1A1 enzyme was less than 500 nM; with MIA PaCa-2 cells (Homo sapiens, 0.5 h), less than 500 nM.

In the case of `CN(C)C(=O)N1CCN(C(=O)c2cnc3ccc(Cl)cc3c2N2CCC(C#N)(c3ccccc3)CC2)CC1` [Cpd. 312, 4-(6-chloro-4-(4-cyano-4-phenylpiperidin-1-yl)quinoline-3-carbonyl)-N,N-dimethylpiperazine-1-carboxamide], the IC50 at ALDH1A1 enzyme was less than 500 nM; with MIA PaCa-2 cells (Homo sapiens, 0.5 h), less than 500 nM.

Consider `CN(C)S(=O)(=O)N1CCN(C(=O)c2cnc3ccc(Cl)cc3c2N2CCC(C#N)(c3ccccc3)CC2)CC1` [Cpd. 314, 4-(6-chloro-4-(4-cyano-4-phenylpiperidin-1-yl)quinoline-3-carbonyl)-N,N-dimethylpiperazine-1-sulfonamide], for which the IC50 on ALDH1A1 enzyme was less than 500 nM; in the experiment with MIA PaCa-2 cells (Homo sapiens, 0.5 h), less than 500 nM.

For `N#CC1(c2ccccc2)CCN(c2c(C(=O)N[C@H]3CC[C@H](O)CC3)cnc3ccc(F)cc23)CC1` [Cpd. 325, 4-(4-cyano-4-phenylpiperidin-1-yl)-6-fluoro-N-((1R,4R)-4-hydroxycyclohexyl)quinoline-3-carboxamide], the IC50 at ALDH1A1 enzyme is less than 500 nM; in the experiment on MIA PaCa-2 cells (Homo sapiens, 0.5 h), less than 500 nM.

With `N#CC1(c2ccccc2)CCN(c2c(C(=O)N3CC(O)C3)cnc3ccc(F)cc23)CC1` [Cpd. 326, 1-(6-fluoro-3-(3-hydroxyazetidine-1-carbonyl)quinolin-4-yl)-4-phenylpiperidine-4-carbonitrile], the IC50 was less than 500 nM on ALDH1A1 enzyme and 1000 to 10000 nM with MIA PaCa-2 cells (Homo sapiens, 0.5 h).

For the compound `CNC(=O)C1CCN(C(=O)c2cnc3ccc(F)cc3c2N2CCC(C#N)(c3ccccc3)CC2)CC1` [Cpd. 327, 1-(4-(4-cyano-4-phenylpiperidin-1-yl)-6-fluoroquinoline-3-carbonyl)-N-methylpiperidine-4-carboxamide], the concentration for half-maximal inhibition (IC50) at ALDH1A1 enzyme is less than 500 nM; in the experiment on MIA PaCa-2 cells (Homo sapiens, 0.5 h), less than 500 nM.

On to `N#CC1(c2ccccc2)CCN(c2c(C(=O)N3CC4(C3)CS(=O)(=O)C4)cnc3ccc(F)cc23)CC1` [Cpd. 328, 1-(3-(2,2-dioxido-2-thia-6-azaspiro[3.3]heptane-6-carbonyl)-6-fluoroquinolin-4-yl)-4-phenylpiperidine-4-carbonitrile], for which the IC50 on ALDH1A1 enzyme was less than 500 nM; in the experiment on MIA PaCa-2 cells (Homo sapiens, 0.5 h), less than 500 nM.

As to `N#CC1(c2ccccc2)CCN(c2c(C(=O)N3CC4(CC(O)C4)C3)cnc3ccc(F)cc23)CC1` [Cpd. 329, 1-(6-fluoro-3-(6-hydroxy-2-azaspiro[3.3]heptane-2-carbonyl)quinolin-4-yl)-4-phenylpiperidine-4-carbonitrile], the IC50 was less than 500 nM at ALDH1A1 enzyme and less than 500 nM with MIA PaCa-2 cells (Homo sapiens, 0.5 h).

As to `N#CC1(c2ccccc2)CCN(c2c(C(=O)N3CCC(O)CC3)cnc3ccc(F)cc23)CC1` [Cpd. 331, 1-(6-fluoro-3-(4-hydroxypiperidine-1-carbonyl)quinolin-4-yl)-4-phenylpiperidine-4-carbonitrile], the concentration for half-maximal inhibition (IC50) at ALDH1A1 enzyme was less than 500 nM; with MIA PaCa-2 cells (Homo sapiens, 0.5 h), 500 to 1000 nM.

Consider `N#CC1(c2ccc(-c3c(C(=O)N4CC5(C4)CS(=O)(=O)C5)cnc4ccc(F)cc34)cc2)CC1` [Cpd. 332, 1-(4-(3-(2,2-dioxido-2-thia-6-azaspiro[3.3]heptane-6-carbonyl)-6-fluoroquinolin-4-yl)phenyl)cyclopropane-1-carbonitrile], for which the IC50 is less than 500 nM at ALDH1A1 enzyme and 1000 to 10000 nM in the experiment on MIA PaCa-2 cells (Homo sapiens, 0.5 h).

For the compound `CNC(=O)C1CCN(C(=O)c2cnc3ccc(F)cc3c2-c2ccc(C3(C#N)CC3)cc2)CC1` [Cpd. 333, 1-(4-(4-(1-cyanocyclopropyl)phenyl)-6-fluoroquinoline-3-carbonyl)-N-methylpiperidine-4-carboxamide], the IC50 at ALDH1A1 enzyme is less than 500 nM; in the experiment on MIA PaCa-2 cells (Homo sapiens, 0.5 h) it was less than 500 nM.

`N#CC1(c2ccc(-c3c(C(=O)N4CC(O)C4)cnc4ccc(F)cc34)cc2)CC1` [Cpd. 334, 1-(4-(6-fluoro-3-(3-hydroxyazetidine-1-carbonyl)quinolin-4-yl)phenyl)cyclopropane-1-carbonitrile]: the concentration for half-maximal inhibition (IC50) on ALDH1A1 enzyme was 1000 to 10000 nM; in the experiment on MIA PaCa-2 cells (Homo sapiens, 0.5 h) it was more than 10000 nM.

Regarding `COc1ccc2ncc(C(=O)NC3CCN(C)CC3)c(N3CCC4(CC3)OCCO4)c2c1` [Example 16, 6-methoxy-N-(1-methylpiperidin-4-yl)-4-(1,4-dioxa-8-azaspiro[4.5]decan-8-yl)quinoline-3-carboxamide, TFA], on ALDH1A1 enzyme, the IC50 was 1000 to 10000 nM.

Consider `COc1ccc2ncc(C(=O)N3CCN(C(=O)C4CC4)CC3)c(N3CCN(c4ccncc4)CC3)c2c1` [Example 20, (4-(cyclopropanecarbonyl)piperazin-1-yl)(6-methoxy-4-(4-(pyridin-4-yl)piperazin-1-yl)quinolin-3-yl)methanone, TFA], for which, at ALDH1A1 enzyme, the IC50 is more than 10000 nM.

For `COc1ccc2ncc(C(=O)N3CCN(C(=O)C4CC4)CC3)c(NC3CCN(C)CC3)c2c1` [Example 21, (4-(cyclopropanecarbonyl)piperazin-1-yl)(6-methoxy-4-((1-methylpiperidin-4-yl)amino)quinolin-3-yl)methanone, TFA], the IC50 on ALDH1A1 enzyme is more than 10000 nM.

As to `COc1ccc2ncc(C(=O)N3CCN(C(=O)C4CC4)CC3)c(NC3CCC3)c2c1` [Example 22, (4-(cyclobutylamino)-6-methoxyquinolin-3-yl)(4-(cyclopropanecarbonyl)piperazin-1-yl)methanone, TFA], the IC50 on ALDH1A1 enzyme is more than 10000 nM.

Take `COc1ccc2ncc(C(=O)N3CCN(C(=O)C4CC4)CC3)c(N3C[C@@H](C)O[C@@H](C)C3)c2c1` [Example 34, (4-(cyclopropanecarbonyl)piperazin-1-yl)(44(2S*,6R*)-2,6-dimethylmorpholino)-6-methoxyquinolin-3-yl)methanone]: the IC50 at ALDH1A1 enzyme is more than 10000 nM.

For the compound `COc1ccc2ncc(C(=O)N3CCN(C(=O)C4CC4)CC3)c(-n3cc(C)cn3)c2c1` [Example 35, (4-(cyclopropanecarbonyl)piperazin-1-yl)(6-methoxy-4-(4-methyl-1H-pyrazol-1-yl)quinolin-3-yl)methanone], the IC50 on ALDH1A1 enzyme was more than 10000 nM.

With `COc1ccc2ncc(C(=O)N3CCN(C(=O)C4CC4)CC3)c(-c3cnn(C)c3)c2c1` [Example 41, (4-(cyclopropanecarbonyl)piperazin-1-yl)(6-methoxy-4-(1-methyl-1H-pyrazol-4-yl)quinolin-3-yl)methanone], the IC50 at ALDH1A1 enzyme is more than 10000 nM.

In the case of `C[C@@H]1CN(c2c(C(=O)N3CCN(C(=O)C4CC4)CC3)cnc3ccc(F)cc23)C[C@H](C)O1` [Example 60, (4-(cyclopropanecarbonyl)piperazin-1-yl)(44(2S*,6R*)-2,6-dimethylmorpholino)-6-fluoroquinolin-3-yl)methanone], the IC50 on ALDH1A1 enzyme was more than 10000 nM.

(Values after US11795177B2, “Substituted quinoline analogs as aldehyde dehydrogenase 1A1 (ALDH1A1) inhibitors” (THE UNITED STATES OF AMERICA, AS REPRESENTED BY THE …, priority 2017, dated 2023).)
